From patent EP4745134A1 (Jiangsu Yahong Meditech Co., Ltd., priority 2023, dated 2025) come the findings set out here.

PRMT5-MTA, sequence (O14744 whole entry): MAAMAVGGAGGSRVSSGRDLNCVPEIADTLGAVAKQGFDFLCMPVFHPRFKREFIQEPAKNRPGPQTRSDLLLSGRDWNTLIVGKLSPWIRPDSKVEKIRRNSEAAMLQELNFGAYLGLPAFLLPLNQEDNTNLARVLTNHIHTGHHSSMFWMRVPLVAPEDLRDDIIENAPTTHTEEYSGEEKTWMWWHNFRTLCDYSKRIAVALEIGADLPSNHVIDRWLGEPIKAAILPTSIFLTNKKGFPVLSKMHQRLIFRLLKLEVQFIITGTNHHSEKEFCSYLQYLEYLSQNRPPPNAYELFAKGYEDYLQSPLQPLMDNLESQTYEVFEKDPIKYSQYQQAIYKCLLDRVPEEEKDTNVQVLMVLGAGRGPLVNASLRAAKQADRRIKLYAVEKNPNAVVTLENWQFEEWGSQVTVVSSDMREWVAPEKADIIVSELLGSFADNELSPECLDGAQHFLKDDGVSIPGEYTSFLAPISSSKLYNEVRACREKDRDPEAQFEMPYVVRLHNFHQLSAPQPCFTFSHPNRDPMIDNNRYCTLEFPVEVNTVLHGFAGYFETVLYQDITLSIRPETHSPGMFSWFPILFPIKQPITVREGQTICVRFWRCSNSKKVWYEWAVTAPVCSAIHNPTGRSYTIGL
PRMT5-MTA, sequence (Q9BQA1 whole entry partner): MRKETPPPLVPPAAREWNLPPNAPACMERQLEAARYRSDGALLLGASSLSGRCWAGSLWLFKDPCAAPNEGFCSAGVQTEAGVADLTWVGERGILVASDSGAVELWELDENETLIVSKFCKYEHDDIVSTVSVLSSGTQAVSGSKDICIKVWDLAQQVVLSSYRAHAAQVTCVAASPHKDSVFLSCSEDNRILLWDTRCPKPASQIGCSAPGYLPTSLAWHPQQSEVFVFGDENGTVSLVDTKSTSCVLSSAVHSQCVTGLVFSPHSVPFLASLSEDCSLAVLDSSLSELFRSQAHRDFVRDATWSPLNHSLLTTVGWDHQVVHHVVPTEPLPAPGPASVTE

This assay addresses PRMT5-MTA (Homo sapiens, UniProt O14744). The assay can be described thus: Enzymatic inhibitory activity against PRMT5-MTA (AlphaScreen). Type of assay: biochemical. To be noted: read-out: IC50. Here is the method:
The AlphaScreen method was used to detect the enzymatic inhibitory activity of the compounds against PRMT5-MTA. 1 x Methyltransferase assay buffer IV (signalchem) was prepared as a solution for diluting each component for the enzymatic reaction. PRMT5/[…] protein of a final concentration of 1 nM, […] (sigma) of a final concentration of 1 uM and S-(5'-adenosine)-L-methionine chloride dihydrochloride (sigma) of a final concentration of 2.5 uM were mixed, then incubated for 30 minutes at room temperature, and transferred to an OptiPlate-384 well plate (PerkinElmer) at a volume of 6 uL per well, for which no PRMT5/[…] protein was added to the control wells. The test compound was 3-fold serially diluted into 10 concentrations, starting from a concentration of 1000 nM, and the series of diluted compounds were added to all wells except the control wells in the well plate using Tecan D300e. The well plate was subjected to centrifugation for 1 minute at 1000 rpm in a centrifuge, and then incubated for 15 minutes at 23°C. Histone H4 substrate of a final concentration of 5 nM was added to the well plate at 4 uL per well, centrifuged for 1 minute at 1000 rpm in a centrifuge, then placed in an incubator at 23°C and reacted for 45 minutes. Anti-histone H4 (symmetrical dimethyl R3) antibody (Abcam) was incubated with 50 ug/mL of AlphaScreen Protein A Acceptor beads (PerkinElmer) for 10 minutes at room temperature beforehand, and then added to the well plate at a volume of 10 uL per well. The mixture was reacted for 1 hour at room temperature. 50 Ug/mL of AlphaScreen Streptavidin Donor beads (PerkinElmer) was added at 10 uL per well, and reacted for 1 hour at room temperature. The signal values were detected for the well plate through the Alpha method using an Envision multifunctional microplate-reader, and the IC50 values for inhibition of the compounds on PRMT5/MET50 enzyme activity were calculated in Xlfit 5.0 software. Table 1. IC50 values for inhibition of the compounds on PRMT5+MTA enzyme activity
(In general: Alpha assays give light when donor and acceptor beads are brought close together.)
What is called IC50 is the concentration at which inhibition is half-maximal. `CN(c1ncccn1)N(Cc1ccc(C(F)(F)F)cn1)C(=O)c1cc2c(cc1Cl)nc(N)c1cnn(C)c12` [Example 17, 4-amino-7-chloro-N',1-dimethyl-N'-(pyrimidin-2-yl)-N-((5-(trifluoromethyl)pyridin-2-yl)methyl)-1H-pyrazolo[4,3-c]quinoline-8-carbohydrazide]: the IC50 came out at 7 nM.

In the case of `Cc1cc2cc(C(=O)N(Cc3ccc(C(F)(F)F)cn3)N(C)c3ncc(I)cn3)ccc2nc1N` [Example 267, 2-amino-N'-(5-iodopyrimidin-2-yl)-N',3-dimethyl-N-((5-(trifluoromethyl)pyridin-2-yl)methyl)quinoline-6-carbohydrazide], the IC50 was 1.8 nM.

`CCc1cccnc1N(C)N(Cc1ccc(C(F)(F)F)cn1)C(=O)c1ccc2nc(N)c(C)cc2c1` [Example 134, 2-amino-N'-(3-ethylpyridin-2-yl)-N',3-dimethyl-N-((5-(trifluoromethyl)pyridin-2-yl)methyl)quinoline-6-carbohydrazide]: the IC50 was determined as 2.3 nM.

Turning to `Cc1cc2nc(N)c3cnn(C)c3c2cc1C(=O)N(C)N1CCc2ncccc21` [Compound 114, 4-amino-N-(2,3-dihydro-1H-pyrrolo[3,2-b]pyridin-1-yl)-N,1,7-trimethyl-1H-pyraz olo[4,3-c]quinoline-8-carboxamide], the IC50 amounted to 4 nM.

For `Cc1cc2cc(C(=O)N(Cc3ccc(C(F)(F)F)cn3)N(C)c3ncc(P(C)(C)=O)cn3)ccc2nc1N` [Example 296, 2-amino-N'-(5-(dimethylphosphoryl)pyrimidin-2-yl)-N',3-dimethyl-N-((5-(trifluoromethyl)pyridin-2-yl)methyl)quinoline-6-carbohydrazide], the IC50 came out at 1.3 nM.

Take `Nc1nc2ccc(C(=O)N(Cc3ccc(C(F)(F)F)cn3)N(c3ncccn3)C3CC3)cc2cc1CF` [Example 323, 2-amino-N'-cyclopropyl-3-(fluoromethyl)-N'-(pyrimidin-2-yl)-N-((5-(trifluoromethyl)pyridin-2-yl)methyl)quinoline-6-carbohydrazide]: the IC50 turned out to be 7.1 nM.

As to `Cc1cc2nc(N)c3cnn(C)c3c2cc1C(=O)N1CCC(=O)N1c1ccc(C(F)(F)F)cn1` [Example 463, 1-(4-amino-1,7-dimethyl-1H-pyrazolo[4,3-c]quinoline-8-carbonyl)-2-(5-(trifluoromethyl)pyridin-2-yl)pyrazolidin-3-one], the IC50 is 1.3 nM.

As to `Cc1cc2nc(N)c3cnn(C)c3c2cc1C(=O)N1CC(O)CN1c1ncccc1F` (stereo not drawn) [Example 356, (4-amino-1,7-dimethyl-1H-pyrazolo[4,3-c]quinolin-8-yl)(2-(3-fluoropyridin-2-yl)-4-hydroxypyrazolidin-1-yl)methanone], the IC50 is 3.7 nM.

`Cc1cc2cc(C(=O)N3CC(C)CN3c3ncccc3F)c(F)cc2nc1N` (stereo not drawn) [Example 333, (2-amino-7-fluoro-3-methylquinolin-6-yl)(2-(3-fluoropyridin-2-yl)-4-methylpyrazolidin-1-yl)methanone]: the IC50 amounted to 7.7 nM.

For the compound `Cc1cc2nc(N)c3cnn(C)c3c2cc1C(=O)N1CC(c2ccccc2)CN1c1ncccc1F` (stereo not drawn) [Example 409, (4-amino-1,7-dimethyl-1H-pyrazolo[4,3-c]quinolin-8-yl)(2-(3-fluoropyridin-2-yl)-4-phenylpyrazolidin-1-yl)methanone], the IC50 was found to be 3.1 nM.

`Cc1cc2cc(C(=O)N(Cc3ccc(-c4nn[nH]n4)cn3)N(C)c3ncccn3)ccc2nc1N` [Example 245, N-((5-(2H-tetrazol-5-yl)pyridin-2-yl)methyl)-2-amino-N',3-dimethyl-N'-(pyrimidin-2-y 1)quinoline-6-carbohydrazide]: the IC50 came to 9.5 nM.

For `CN(C(=O)c1ccc2nc(N)c3c(c2c1)COC3)N(C)c1ccc(C(F)(F)F)cn1` [Example 55, 4-amino-N,N'-dimethyl-N'-(5-(trifluoromethyl)pyridin-2-yl)-1,3-dihydrofuro[3,4-c]quinoline-8-carbohydrazide], the IC50 was 4.6 nM.

Take `Cc1cc2cc(C(=O)N(Cc3cnc(Br)cn3)N(C)c3ncccn3)ccc2nc1N` [Example 282, 2-amino-N-((5-bromopyrazin-2-yl)methyl)-N',3-dimethyl-N'-(pyrimidin-2-yl)quinoline-6-carbohydrazide]: the IC50 is 4.5 nM.

Take `Cc1cc2nc(N)c3c(cnn3C)c2cc1C(=O)N(Cc1ccc(C(F)(F)F)cn1)N(C)c1ncccn1` [Example 81, 4-amino-N',3,7-trimethyl-N'-(pyrimidin-2-yl)-N-((5-(trifluoromethyl)pyridin-2-yl)methyl)-3H-pyrazolo[3,4-c]quinoline-8-carbohydrazide]: the IC50 amounted to 5.8 nM.

In the case of `Cc1cc2cc(C(=O)N(Cc3ccc(-c4cnn(C(F)(F)F)c4)cn3)Nc3ncccn3)ccc2nc1N` [Example 249, 2-amino-3-methyl-N'-(pyrimidin-2-yl)-N-((5-(1-(trifluoromethyl)-1H-pyrazol-4-yl)pyridin-2-yl)methyl)quinoline-6-carbohy drazide], the IC50 came to 40 nM.

Turning to `Cc1cc2cc(C(=O)N(Cc3ccc(C(F)(F)F)cn3)N(c3ncccn3)C3CC3)c(F)cc2nc1N` [Example 269, 2-amino-N'-cyclopropyl-7-fluoro-3-methyl-N'-(pyrimidin-2-yl)-N-((5-(trifluoromethyl)pyridin-2-yl)methyl)quinoline-6-car bohydrazide], the IC50 was determined as 5.7 nM.

With `Cc1cc2cc(C(=O)N(Cc3cccc(C(F)(F)F)n3)N(C)c3ncccn3)ccc2nc1N` [Example 103, 2-amino-N',3-dimethyl-N'-(pyrimidin-2-yl)-N-((6-(trifluoromethyl)pyridin-2-yl)methyl)quinoline-6-carbohydrazide], the IC50 is 2.9 nM.

On to `Cc1cc2nc(N)c3c(cnn3C)c2cc1C(=O)N1CCCN1c1ncccc1F` [Example 501, (4-amino-3,7-dimethyl-3H-pyrazolo[3,4-c]quinolin-8-yl)(2-(3-fluoropyridin-2-yl)pyrazolidin-1-yl)methanone], for which the IC50 turned out to be 4.4 nM.

As to `Cc1cc2nc(N)c3cnn(C)c3c2cc1C(=O)N1CC(C)CN1c1ncccc1C` (stereo not drawn) [Example 380, (4-amino-1,7-dimethyl-1H-pyrazolo[4,3-c]quinolin-8-yl)(4-methyl-2-(3-methylpyridin-2-yl)pyrazolidin-1-yl)methanone], the IC50 came out at 3.4 nM.

As for `COC1CN(C(=O)c2cc3c(cc2Cl)nc(N)c2cnn(C)c23)N(c2cc(F)ccc2F)C1` (stereo not drawn) [Example 440, (4-amino-7-chloro-1-methyl-1H-pyrazolo [4,3-c]quinolin-8-yl)(2-(2,5-difluorophenyl)-4-methoxypyrazolidin-1-yl)methanone], the IC50 is 3.7 nM.

Take `Cc1cc2cc(C(=O)N(Cc3ccccn3)N(C)c3ncccn3)ccc2nc1N` [Example 9, 2-amino-N',3-dimethyl-N-(pyridin-2-ylmethyl)-N'-(pyrimidin-2-yl)quinoline-6-carbohydrazide]: the IC50 worked out at 3.2 nM.

Regarding `Cc1cc2nc(N)c3cnn(C)c3c2cc1C(=O)N1CC(C)CN1c1ccc(C(F)(F)F)cn1` (stereo not drawn) [Example 389, (4-amino-1,7-dimethyl-1H-pyrazolo[4,3-c]quinolin-8-yl)(4-methyl-2-(5-(trifluoromethyl)pyridin-2-yl)pyrazolidin-1-yl)met hanone], the IC50 was 6.3 nM.

In the case of `Cc1cc2cc(C(=O)N(Cc3ccc(C(F)(F)F)cn3)N(C)c3ncccc3Br)ccc2nc1N` [Example 106, 2-amino-N'-(3-bromopyridin-2-yl)-N',3-d imethyl-N-((5-(trifluoromethyl)pyridin-2-yl)methyl)quinoline-6-carbohydrazide], the IC50 was 1.9 nM.

For the compound `CCc1cc2nc(N)c3cnn(C)c3c2cc1C(=O)N1CCCN1c1ccc(C(F)(F)F)cn1` [Example 496, (4-amino-7-ethyl-1-methyl-1H-pyrazolo[4,3-c]quinolin-8-yl)(2-(5-(trifluoromethyl)pyridin-2-yl)pyrazolidin-1-yl)methanone], the IC50 was 3.4 nM.

For the compound `Cc1cc2cc(C(=O)N(Cc3ccc(C(F)(F)F)cn3)N(C)c3ncccc3C(C)C)ccc2nc1N` [Example 136, 2-amino-N'-(3-isopropylpyridin-2-yl)-N', 3-dimethyl-N-((5-(trifluoromethyl)pyridin-2-yl)methyl)quinoline-6-carbohydrazide], the IC50 worked out at 3.6 nM.

Regarding `Cc1cc2cc(C(=O)N(Cc3ccc(C4CC4)cc3F)N(C)c3nccc4nccnc34)ccc2nc1N` [Example 167, 2-amino-N-(4-cyclopropyl-2-fluorobenzy 1)-N',3-dimethyl-N'-(pyrido[3,4-b]pyrazin-5-yl)quinoline-6-carbohydrazide], the IC50 came out at 1.3 nM.

As for `Cc1cc2cc(C(=O)N(Cc3ccc(C(F)(F)F)cn3)N(C)c3nccc4ccccc34)ccc2nc1N` [Example 45, 2-amino-N'-(isoquinol-1-yl)-N',3-dimethyl-N-((5-(trifluoromethyl)pyridin-2-yl)methyl)quinoline-6-carbohydrazide], the IC50 was determined as 3.1 nM.
